# In ChEMBL document CHEMBL1201862, “PubChem BioAssay data set” (2004):
#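 96-well plates; 48 h exposure; 5 concentrations. Endpoints by linear interpolation between flanking doses. Not reached: highest tested concentration assigned. At the GI50, growth is halved.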 Calls of active or inactive are those of the source. Rule as the data show it: active = GI50 up to about 1.1 µM and inactive = higher.
# Legend:
# Experiment in all cases: NCI-60 cell line screen, 48 h
# DLD-1 = test system: DLD-1
# DMS-114 = test system: DMS-114
# DMS-273 = test system: DMS-273
# HOP-18 = test system: HOP-18
# KM-20L2 = test system: KM-20L2
# M19-MEL = test system: M19-MEL
# XF498 = test system: XF498
# RXF 631 = test system: RXF 631
# SNB-78 = test system: SNB-78
Compound,GI50 (DLD-1),GI50 (DMS-114),GI50 (DMS-273),GI50 (HOP-18),GI50 (KM-20L2),GI50 (M19-MEL),GI50 (XF498),GI50 (RXF 631),GI50 (SNB-78)
OCc1ccc(-c2ccc(-c3ccc(CO)s3)o2)s1,6.05 µM (inactive),13.4 µM (inactive),1.13 µM (inactive),0.341 µM (active),0.0405 µM (active),41.7 µM (inactive),0.0562 µM (active),,
COc1ccc(C2NC(c3ccc(OC)cc3)C(C)C(=O)C2C)cc1 (stereo not given),> 100 µM (inactive),64.4 µM (inactive),> 100 µM (inactive),> 100 µM (inactive),> 100 µM (inactive),> 100 µM (inactive),,> 100 µM (inactive),> 100 µM (inactive)
COc1ccc(NC(=O)CC/C(CC(=O)c2ccco2)=N/Nc2ccc([N+](=O)[O-])cc2[N+](=O)[O-])cc1,,23.6 µM (inactive),57.7 µM (inactive),26.2 µM (inactive),> 100 µM (inactive),58.1 µM (inactive),22.8 µM (inactive),38.8 µM (inactive),> 100 µM (inactive)
CCn1cc(/C=C/C(C)c2cn(CC)c(=O)[nH]c2=O)c(=O)[nH]c1=O (stereo not given),> 100 µM (inactive),> 100 µM (inactive),> 100 µM (inactive),> 100 µM (inactive),> 100 µM (inactive),> 100 µM (inactive),,> 100 µM (inactive),
O=C(NCCOCCO)c1ccc(O)cc1,> 100 µM (inactive),> 100 µM (inactive),> 100 µM (inactive),> 100 µM (inactive),> 100 µM (inactive),> 100 µM (inactive),55 µM (inactive),,
NC(=O)Nc1c([N+](=O)[O-])cc(C(F)(F)F)cc1[N+](=O)[O-],,,> 100 µM (inactive),,29.2 µM (inactive),,53.6 µM (inactive),65.9 µM (inactive),> 100 µM (inactive)
CC1(C)CCC(Sc2ccccc2)O1 (stereo not given),> 100 µM (inactive),> 100 µM (inactive),> 100 µM (inactive),,> 100 µM (inactive),> 100 µM (inactive),> 100 µM (inactive),,> 100 µM (inactive)
Cc1cc(C)nc(NS(=O)(=O)c2ccc(Nc3c4ccc(Cl)cc4nc4c(C(=O)Nc5ccc(S(N)(=O)=O)cc5)cccc34)cc2)n1,13.8 µM (inactive),22.8 µM (inactive),,,18.6 µM (inactive),25.4 µM (inactive),18.4 µM (inactive),18.2 µM (inactive),49.9 µM (inactive)
CCN(CC)CC(C(C)=O)C(c1ccccc1)c1c(O)c2ccccc2oc1=O (stereo not given),> 100 µM (inactive),> 100 µM (inactive),> 100 µM (inactive),> 100 µM (inactive),> 100 µM (inactive),> 100 µM (inactive),> 100 µM (inactive),,> 100 µM (inactive)
O=C(CCc1nnc2s/c(=C\c3ccccc3)c(=O)n12)Nc1cc(Cl)ccc1Cl,> 100 µM (inactive),> 100 µM (inactive),> 100 µM (inactive),> 100 µM (inactive),> 100 µM (inactive),> 100 µM (inactive),> 100 µM (inactive),> 100 µM (inactive),> 100 µM (inactive)
O=C1OC(/C=C/c2ccccc2)C(=O)C1=O (stereo not given),> 100 µM (inactive),,> 100 µM (inactive),23.8 µM (inactive),> 100 µM (inactive),> 100 µM (inactive),> 100 µM (inactive),,
CN(C)c1ccc(/C=c2\sc3nc4ccccc4n3c2=O)cc1,> 100 µM (inactive),> 100 µM (inactive),> 100 µM (inactive),> 100 µM (inactive),> 100 µM (inactive),> 100 µM (inactive),> 100 µM (inactive),> 100 µM (inactive),> 100 µM (inactive)
c1ccc(/N=C2\c3ccccc3C3=NCCCN32)cc1,39.2 µM (inactive),28.2 µM (inactive),36.3 µM (inactive),,59.2 µM (inactive),53.6 µM (inactive),85.5 µM (inactive),85.5 µM (inactive),> 100 µM (inactive)
C=CCN(N=O)C(=O)ON1C(=O)CCC1=O,> 100 µM (inactive),> 100 µM (inactive),> 100 µM (inactive),> 100 µM (inactive),> 100 µM (inactive),> 100 µM (inactive),,> 100 µM (inactive),> 100 µM (inactive)
CCC(C)c1cccc(C)c1NC(=O)C(=O)Cc1nc2ccccc2s1 (stereo not given),> 100 µM (inactive),> 100 µM (inactive),> 100 µM (inactive),> 100 µM (inactive),> 100 µM (inactive),> 100 µM (inactive),> 100 µM (inactive),,> 100 µM (inactive)
C/C=C1/C=CC2c3[nH]c4ccccc4c3CCN2C1 (stereo not given),> 400 µM (inactive),296 µM (inactive),> 400 µM (inactive),7.11 µM (inactive),> 400 µM (inactive),> 400 µM (inactive),> 400 µM (inactive),> 400 µM (inactive),
Cn1nc(-c2ccccc2)c2c(/C=C/c3ccc(F)cc3)onc2c1=O,> 100 µM (inactive),,> 100 µM (inactive),11.3 µM (inactive),> 100 µM (inactive),> 100 µM (inactive),14.8 µM (inactive),,
CCSC1(SCC)CC(Cc2ccc(OC)cc2)N(/C=N/C(C)(C)C)C1 (stereo not given),33.5 µM (inactive),20.1 µM (inactive),37.4 µM (inactive),41.1 µM (inactive),12.9 µM (inactive),29 µM (inactive),18.1 µM (inactive),,31.8 µM (inactive)
CCCCC1(OC(=O)CCC(=O)O)CCC2(CCC(C)C(C/C=C(C)/C=C/C(O)C(C)/C=C/C(=O)O)O2)OC1CC/C(C)=C/C(=O)O (stereo not given),3.25 µM (inactive),2.45 µM (inactive),5.94 µM (inactive),4.58 µM (inactive),10.9 µM (inactive),2.84 µM (inactive),2.03 µM (inactive),1.93 µM (inactive),2.55 µM (inactive)
Cc1cc(Cl)cc2c1NC(=O)C2=O.O=C(c1ccccc1)C(F)(F)F,60.1 µM (inactive),30.7 µM (inactive),50.7 µM (inactive),59.7 µM (inactive),76 µM (inactive),13.3 µM (inactive),30.1 µM (inactive),,24.4 µM (inactive)
CC(C)=CCC/C(C)=C/CC/C(C)=C/CC/C=C(\C)CC/C=C(\C)CCC1SC1(C)C (stereo not given),> 100 µM (inactive),75.7 µM (inactive),> 100 µM (inactive),> 100 µM (inactive),> 100 µM (inactive),> 100 µM (inactive),,,> 100 µM (inactive)
N#CC12CC3(CCC1CCC1(C2)OCCO1)OCCO3 (stereo not given),> 100 µM (inactive),> 100 µM (inactive),> 100 µM (inactive),> 100 µM (inactive),> 100 µM (inactive),> 100 µM (inactive),> 100 µM (inactive),> 100 µM (inactive),> 100 µM (inactive)
COC(=O)[C@@H]1C(=O)O[C@@H](c2ccc3c(c2)OCO3)[C@@H]1C(=O)OC.COC(=O)[C@H]1C(=O)O[C@@H](c2ccc3c(c2)OCO3)[C@@H]1C(=O)OC,> 100 µM (inactive),> 100 µM (inactive),> 100 µM (inactive),,> 100 µM (inactive),> 100 µM (inactive),,> 100 µM (inactive),> 100 µM (inactive)
Nc1ccccc1N,> 100 µM (inactive),,> 100 µM (inactive),> 100 µM (inactive),,> 100 µM (inactive),,,
COc1cc(CC(=O)c2ccc3c(c2)OCO3)cc(OC)c1OC,> 100 µM (inactive),27.9 µM (inactive),,> 100 µM (inactive),> 100 µM (inactive),> 100 µM (inactive),,53.7 µM (inactive),> 100 µM (inactive)
